Measured values reported in patent US20140364417A1, “METHOD OF TREATING ATRIAL FIBRILLATION” (Gilead Sciences, Inc., priority 2013, published 2014).
Several values for one entry are separate records, joined by “and”; a condition that tells them apart may be missing. Equal values may be shown once. Entries after “also recorded” stand apart in the source; their conditions may differ.

What was measured:
[1] = tested on: Acetylcholine Mediated AF Model in Pigs; test: Acetylcholine mediated AF model in pigs: dominant frequency, ventricular rate, arterial blood pressure during AF; assay type: in vivo, pig; settings: for effect on arterial blood pressure during AF: FIG. 3 and FIG. 4; for effect on dominant frequency of atrial fibrillation / effect on ventricular rate during atrial fibrillation: ivabradine 0.25 mg/kg i.v. bolus; for effect on dominant frequency of atrial fibrillation: ranolazine 2.4 mg/kg bolus + 0.135 mg/kg/min; for effect on dominant frequency of atrial fibrillation / dominant frequency of AF after drug: FIG. 8; for effect on ventricular rate during atrial fibrillation: FIG. 9; for ventricular rate during AF after drug / reduction of ventricular rate during AF: ivabradine 0.25 mg/kg; for ventricular rate during AF after drug: before drug 269.7±6.2 (ivabradine) and 227.3±14.7 (ranolazine, combination); for dominant frequency of AF after drug: series with ivabradine 0.25 mg/kg, baseline 10.3±1.4 (ivabradine) and 9.0±0.8 (ranolazine, combination); for reduction of ventricular rate during AF: alone or shortly after ranolazine
Method: (§1) Data were gathered from male Yorkshire pigs (n=16) weighing 35±2 kg (mean±SEM). The animals were preanesthetized with telazol (4.7 mg/kg, intramuscularly) and then anesthetized with alpha-chloralose (100 mg/kg, i.v., bolus followed by 40 mg/kg/h, i.v., continuous infusion). The animals were intubated and ventilation was maintained between 10-16 breaths/min with volumes between 400-500 mL. Vital signs including core body temperature, heart rate, and oxygen saturation were continuously monitored.
(§2) The right and left femoral veins were cannulated with 7Fr introducer sheaths using the Seldinger technique to insert catheters in the right atrial (RA) appendage for pacing and for positioning the intrapericardial catheter. Arterial blood pressure was continuously monitored from a femoral arterial sheath, and intravenous fluids were administered through the ear vein. The electrocardiogram (ECG) was recorded with a Prucka Cardiolab workstation (GE Medical Systems, Milwaukee, Wis.) from atrial and ventricular sites.
(§3) Ranolazine was given as a 2.4 mg/kg, i.v., bolus followed by continuous infusion of 0.135 mg/kg/min, i.v.
(§4) A nonsteerable, quadripolar electrode catheter (Bard Electrophysiology, Lowell Mass.) was placed in the right atrium (RA) via the femoral vein and a second quadripolar electrode catheter in the right ventricle via the jugular vein. A bipolar electrode was placed in the non-coronary cusp of the aorta through the left carotid artery to record the His bundle electrogram. A pigtail catheter was inserted in the left ventricle via the left femoral artery to record and calculate contractility [left ventricular dP/dt]. Transatrial access was employed to deliver acetylcholine (ACh) into the pericardial space. Specifically, a small puncture was made in the RA appendage with the stiff end of a coronary angioplasty guidewire (0.014-inch Wizdom guidewire, Cordis, Miami, Fla., USA) placed within the lumen of a soft infusion catheter (0.038-inch SOS straight-tip, open-ended angiographic guidewire, Bard Electrophysiology). This wire-within-wire system was advanced as a unit into an 8Fr multipurpose guide catheter (MP2, Boston Scientific, Boston Mass.) previously positioned in the RA appendage via a femoral vein under fluoroscopic guidance and into the pericardial space. The infusion catheter was left in the pericardial space for delivery of ACh and the inner guidewire was removed. Conformation of the infusion catheter on fluoroscopy to the curvature of the heart verified its location within the pericardial space. All of the pericardial fluid was then aspirated with the infusion catheter. Intrapericardial access is associated with a hematocrit <2%, indicating minimum trauma from the atrial puncture (Kumar et al., J Cardiovasc Electrophysiol 2009; 20:796-802). The presence of acetylcholinesterase can rapidly degrade ACh and prevent a sustained response to this neurotransmitter.
Atrial fibrillation (AF) was defined as an irregular atrial rhythm with an average cycle length <150 msec at all atrial sites, whereas atrial flutter was defined as a regular atrial rhythm with fixed cycle length >150 msec at all atrial sites. After baseline electrical testing was performed, AF initiation was attempted by decremental burst pacing at each atrial site down to loss of 1:1 capture. ACh (1 mL of 100 mM solution) along with a 1-mL saline flush was injected into the pericardial space via the transatrial infusion catheter. […] After 5 minutes of AF, the pericardial space was lavaged with saline (20 mL) via the transatrial pericardial catheter. At the end of lavage, no further pericardial fluid could be removed. Lavage was performed after 5 minutes of AF in order to minimize the mild systemic hypotension that was occasionally associated with ACh administration. The time to spontaneous termination of AF was recorded.
Dominant frequency of AF was analyzed during the 6th minute after AF initiation using the intracardiac electrograms from the right atrial appendage. […]

[2] = Plasma level determination by LC/MS/MS in pigs; assay type: in vivo; settings: pig; at the time of testing combined administration with ivabradine
Method: Blood samples were collected in sodium heparin tubes at 0 and 30 minutes following ranolazine bolus administration and at 0, 15, and 30 minutes after ivabradine bolus administration. The samples were centrifuged and frozen at −80° C. until drug level determination was performed. Concentrations of ivabradine and ranolazine in plasma were determined at Gilead Sciences, Inc. (Foster City Calif.). Plasma was analyzed using a high-performance liquid chromatography-tandem mass spectrometric assay (LC/MS/MS). The quantification limit of ivabradine was 4 nM (1.87 ng/mL). The dynamic range of quantification was 4-10 000 nM (1.87-4686 ng/mL). Ranolazine and an internal standard were extracted with the protein precipitation extraction method. The dynamic range of quantification for ranolazine was 45.8-23,400.

[3] = tested on: male Yorkshire pigs; test: Hemodynamic changes in pigs: sinus rate, mean arterial pressure, left ventricular dP/dt; assay type: in vivo; settings: for sinus rate after drug: at the time of electrical testing, ivabradine 0.25 mg/kg, before drug 111±4.0 (ivabradine) and 105±5.7 (ranolazine, combination)
Method: as §1, §2, §3, §4
The statistical tests were carried out with a SAS statistical package (SAS Institute, Cary, N.C.). Effects on electrophysiologic properties were determined by repeated measures analysis of variance (ANOVA) followed by post-hoc t-tests with Bonferroni correction for multiple comparisons. For mean arterial pressure, heart rate, and dominant frequency during atrial fibrillation, we used paired t-tests to compare effects of agents to baseline. All data are reported as mean±SEM, with P<0.05 considered significant.

[4] = tested on: atrial and ventricular myocardium; settings: cited from earlier work
[5] = Reffelmann and Kloner 2010; Verrier et al 2013; cited from earlier work
[6] = tested on: AV node and ventricular Purkinje system; settings: ivabradine 0.2 mg/kg, i.v., cited from earlier work

Q: For `COc1ccccc1OCC(O)CN1CCN(CC(=O)Nc2c(C)cccc2C)CC1` (racemic) [ranolazine, (±)-N-(2,6-dimethylphenyl)-4-[2-hydroxy-3-(2-methoxyphenoxy)-propyl]-1-piperazineacetamide], which “change in arterial blood pressure during AF versus control (Δ Control/drug)” value ([1]; FIG. 3) is on record?
A: Its value is 3.36 mmHg.

Q: What about the “effect on arterial blood pressure during AF” value [1] of the same molecule?
A: The value was “Neither ivabradine (FIG. 4) nor ranolazine (FIG. 3) given alone improves; also recorded: no significant improvement”.

Q: What about the “effect on dominant frequency of atrial fibrillation” value [1] of the same molecule?
A: Its value is “neither drug alone was effective”.

Q: And the “effect on ventricular rate during atrial fibrillation” value [1]?
A: The value was “not reduced; also recorded: did not”.

Q: What about the “ventricular rate during AF after drug” value [1] of the same molecule?
A: Its value is 197.1±17.4 beats/min.

Q: What about the “dominant frequency of AF after drug” value [1] of the same molecule?
A: Its value is 7.8±0.9 Hz.

Q: And the “plasma level of ranolazine” value [2]?
A: Its value is 9.8 ± 1.5 µM.

Q: What about the “sinus rate after drug” value [3] of the same molecule?
A: The value was 96±3.9 beats/min.

Q: What about the “effect on left ventricular (LV) dP/dt (contractility)” value ([3]; pig, in vivo) of the same molecule?
A: Its value is “not altered”.

Q: And the “effect on mean arterial pressure during sinus rhythm” value ([3]; pig, in vivo)?
A: The value was “Neither ivabradine nor ranolazine given separately altered”.

Q: And the “dominant frequency of AF” value ([4]; Kumar et al. 2009)?
A: The value was “capable of reducing”.

Q: What about the “APD in ventricular myocardium” value ([4]; clinically relevant concentrations (5 and 10 μM)) of the same molecule?
A: The value was “minimal or no effect”.

Q: What about the “duration of the action potential (APD90) in atria” value ([4]; published studies) of the same molecule?
A: The value was “prolongs”.

Q: And the “steady-state plasma therapeutic concentration” value [5]?
A: Its value is 2 to 8 µM.

Q: Which results are given for `COc1cc2c(cc1OC)CC(=O)N(CCCN(C)C[C@H]1Cc3cc(OC)c(OC)cc31)CC2` [ivabradine, 3-{3-[{[(7S)-3,4-dimethoxybicyclo[4.2.0]octa-1,3,5-trien-7-yl]methyll}-(methyl)amino]propyl}-7,8-dimethoxy-1,3,4,5-tetrahydro-2H-3-benzapenin-2-one]?
A: effect on arterial blood pressure during AF [1]: Neither ivabradine (FIG. 4) nor ranolazine (FIG. 3) given alone improves; also recorded: small, not significant decrease; effect on dominant frequency of atrial fibrillation [1]: neither drug alone was effective; effect on ventricular rate during atrial fibrillation [1]: lowered ventricular rate; reduction of ventricular rate during AF [1]: 9%; reduction of ventricular rate during AF ([1]; 30 min after drug infusion): 22.5±6.0 beats/min and 22.53±6.0 beats/min; ventricular rate during AF after drug [1]: 247.2±9.5 beats/min; dominant frequency of AF after drug [1]: 9±0.7 Hz; left ventricular (LV) dP/dt after drug ([3]; at 30 min after drug, pacing at 180 beats/min, baseline 2156±647.4 (ivabradine) and 1864±109.1 (ranolazine, combination)): 2342±486.5 mmHg/sec; sinus rate after drug [3]: 90±3.3 beats/min; effect on mean arterial pressure during sinus rhythm ([3]; drugs given separately): Neither ivabradine nor ranolazine given separately altered; effect on left ventricular (LV) dP/dt (contractility) ([3]; pacing at 180 beats/min): not altered; heart rate ([6]; Thollon 1997, Camm and Lau 2003): lowers heart rate; conductivity, refractoriness or repolarization duration of AV node and ventricular Purkinje system [6]: without causing changes
